Several values for one entry are separate records, joined by “and”; a condition that tells them apart may be missing. Identical values can stand only once.
Columns and labels:
HCoV-OC43 [1] = assay: Cytokine gene expression in brains and spinal cords of infected mice; type: in vivo, BALB/c suckling mice; details: for CCL2 gene expression / CXCL10 gene expression / IL1B gene expression / IL6 gene expression / TNF gene expression: one value per animal
HCoV-OC43 [2] = assay: In vivo efficacy of DBM against HCoV-OC43 in suckling mice (body weight, viral RNA copies, immunofluorescence, H&E); set-up: species or system BALB/c suckling mice; details: Day 5, one value per mouse
Protocol: Next, we characterized the therapeutic efficacy of the DBM in vivo. In this experiment, randomized 5–6-day-old suckling BALB/c mice were orally treated with DBM at concentrations of 500, 200, and 100 mpk 2 hours after being intranasally challenged with HCoV-OC43. Menstruum and VV116 were used as negative and positive controls, respectively. All the mice were sacrificed on Day 5 for organ and sample collection (Fig 4A). The body weight changes of the mice were continuously monitored during the trial. Infection with HCoV-OC43 led to body weight loss in the vehicle-treated mice on Day 5 (Fig 4B). […] The number of viral RNA copies from the brain, spinal cord, lungs, and kidneys were analysed via qRT-PCR, which targeted the HCoV-OC43 nucleocapsid gene sequence. On Day 5, the number of viral RNA copies in the vehicle-treated group reached approximately 10^12 copies in the brain, 10^9 copies in the spinal cord, 10^8 copies in the lungs, and 10^6 copies in the kidney (Fig 4C). In the mice treated with DBM at 500 mpk, the number of viral RNA copies within these organs and tissues was reduced by 1–3 logs compared with the vehicle-treated group. […] Sections of mouse brains, spinal cords, lungs, and kidneys were subjected to immunofluorescence staining with antibodies targeting HCoV-OC43 nucleocapsid proteins.
Fig 4 In vivo antiviral efficacy of DBM in 5-day-old BALB/c suckling mice infected with HCoV-OC43. A) Schematic of the experimental design for evaluating DBM in suckling mice. Each group consisted of 5-6 suckling mice. The schematic was created by the authors using Adobe Illustrator 2022. B) Body weight changes of mice during the experiment. Body weights were recorded daily and all mice were euthanised on the fifth day after infection. C) Viral RNA copies in the brains, spinal cords, lungs, and kidneys of mice collected on Day 5. After grinding and centrifuging the samples with DMEM, viral copies from the supernatants were tested by qRT-PCR. D) Viral titres in homogenised organs and tissues collected from mice on Day 5. E) Immunofluorescence staining of brain and lung sections from mice treated with different regimens. HCoV-OC43 nucleocapsid proteins were detected by immunofluorescence (green). Cell nuclei were stained with DAPI (blue). Data were statistically analyzed with Student’s T test. *: p ≤ 0.05, **: p ≤ 0.01, ***: p ≤ 0.001, ****: p ≤ 0.0001; ns, not significant. The experiments were repeated three times independently with similar results. […] No numeric values are printed in any panel, and nothing was read off the bars, points or curves.
BALB/c mice were maintained and bred in a specific-pathogen-free (SPF) environment at the Laboratory Animal Center of Wuhan Institute of Virology, CAS. Pregnant mice with the same expected delivery date were acclimated in individually ventilated cages under standard conditions within an SPF environment. Food and water were available ad libitum. The mice were anaesthetized by isoflurane inhalation before any operation that may have caused potential discomfort. Before the experiment, suckling mice were randomly allocated into 6 distinct groups, namely, the healthy group, the vehicle group, the groups receiving DBM at 500 mg/kg (mpk) orally quaque die (QD), 200 mpk QD, and 100 mpk QD, and the group receiving VV116 at 25 mpk orally QD. Each group was comprised of 5–6 suckling mice. On the initiation day (Day 0) of the experiment, 5–6-day-old BALB/c suckling mice were intranasally infected with 1 × 10^4 TCID50 of HCoV-OC43. Two hours postinoculation, the mice were orally treated with either a placebo or varying doses of the drugs on the basis of their respective groupings as outlined earlier. This oral treatment regimen was continued for several days. The body weight changes of the mice were monitored daily. On Day 5, all the mice in each group were sacrificed for virological and histopathological analyses. […]

SMILES: O=C(CC(=O)c1ccccc1)c1ccccc1 [DBM, dibenzoylmethane]
- CCL2 gene expression (HCoV-OC43 [1]; BRAIN, DBM 100 mpk): 1.51 and 1.54 and 1.00 and 1.20 and 1.62 and 1.74
- CXCL10 gene expression (HCoV-OC43 [1]; BRAIN, DBM 100 mpk): 2.90 and 3.33 (2×) and 2.35 and 2.81 and 3.27
- IL1B gene expression (HCoV-OC43 [1]; BRAIN, DBM 100 mpk): 1.23 and 1.14 (2×) and 0.87 and 0.89 and 1.66
- IL6 gene expression (HCoV-OC43 [1]; BRAIN, DBM 100 mpk): 0.95 and 1.15 and 0.67 and 0.94 and 1.52 and 1.33
- TNF gene expression (HCoV-OC43 [1]; BRAIN, DBM 100 mpk): 1.36 (2×) and 0.92 and 0.88 and 1.72 and 1.28
- CCL2 gene expression (HCoV-OC43 [1]; BRAIN, DBM 200 mpk): 1.46 and -0.88 and 0.68 and 1.08 and 1.88
- CXCL10 gene expression (HCoV-OC43 [1]; BRAIN, DBM 200 mpk): 3.15 and -0.32 and 2.05 and 2.44 and 3.30
- IL1B gene expression (HCoV-OC43 [1]; BRAIN, DBM 200 mpk): 1.27 and -1.00 and 0.43 and 0.66 and 1.46
- IL6 gene expression (HCoV-OC43 [1]; BRAIN, DBM 200 mpk): 1.26 and -0.71 and 0.30 and 0.34 and 1.23
- TNF gene expression (HCoV-OC43 [1]; BRAIN, DBM 200 mpk): 1.14 and -1.10 and 0.49 and 0.84 and 1.31
- CCL2 gene expression (HCoV-OC43 [1]; BRAIN, DBM 500 mpk): 1.19 and 0.29 and 0.89 and 1.43
- CXCL10 gene expression (HCoV-OC43 [1]; BRAIN, DBM 500 mpk): 2.39 and 1.30 and 1.07 and 2.91
- IL1B gene expression (HCoV-OC43 [1]; BRAIN, DBM 500 mpk): 1.46 and 0.54 and 0.85 and 1.71
- IL6 gene expression (HCoV-OC43 [1]; BRAIN, DBM 500 mpk): 0.93 and 0.71 and 0.92 and 1.17
- TNF gene expression (HCoV-OC43 [1]; BRAIN, DBM 500 mpk): 1.05 and 0.22 and 0.74 and 1.31
- inflammation (cytokine gene expression) in the brain and spinal cord (HCoV-OC43 [1]; CCL2, CXCL10, IL-1β, IL-6, TNF-α, 5 dpi): dramatically reduced inflammation
- CCL2 gene expression (HCoV-OC43 [1]; SPINAL CORD, DBM 100 mpk): 0.10 and -0.50 and -0.53 and -0.21 and -0.06 and -0.89
- CXCL10 gene expression (HCoV-OC43 [1]; SPINAL CORD, DBM 100 mpk): 2.03 and 1.48 and 0.34 and 0.55 and 1.02 and 0.66
- IL1B gene expression (HCoV-OC43 [1]; SPINAL CORD, DBM 100 mpk): -0.76 and -1.28 and -0.98 and -0.97 and -0.64 and -1.78
- IL6 gene expression (HCoV-OC43 [1]; SPINAL CORD, DBM 100 mpk): 1.39 and -0.72 and 0.41 and 1.02 and 0.87 and 0.47
- TNF gene expression (HCoV-OC43 [1]; SPINAL CORD, DBM 100 mpk): 0.47 and -0.10 and -0.18 and 0.26 and 0.80 and -0.63
- CCL2 gene expression (HCoV-OC43 [1]; SPINAL CORD, DBM 200 mpk): -0.12 and -1.42 and -0.38 and -0.65 and 0.03
- CXCL10 gene expression (HCoV-OC43 [1]; SPINAL CORD, DBM 200 mpk): 1.47 and -1.58 and 0.55 and 0.23 and 1.42
- IL1B gene expression (HCoV-OC43 [1]; SPINAL CORD, DBM 200 mpk): -0.83 and -1.94 and -0.93 and -0.47 and -0.26
- IL6 gene expression (HCoV-OC43 [1]; SPINAL CORD, DBM 200 mpk): 0.59 and -0.46 and 0.79 and 0.02 and 0.49
- TNF gene expression (HCoV-OC43 [1]; SPINAL CORD, DBM 200 mpk): -0.40 and -0.33 and -1.12 and -0.23 and 0.63
- CCL2 gene expression (HCoV-OC43 [1]; SPINAL CORD, DBM 500 mpk): 2.46 and 1.15 and -0.63 and 0.95
- CXCL10 gene expression (HCoV-OC43 [1]; SPINAL CORD, DBM 500 mpk): 3.10 and 2.34 and 0.15 and 1.92
- IL1B gene expression (HCoV-OC43 [1]; SPINAL CORD, DBM 500 mpk): 2.44 and 0.22 and -1.51 and 0.43
- IL6 gene expression (HCoV-OC43 [1]; SPINAL CORD, DBM 500 mpk): 3.07 and 2.18 and -0.81 and 1.64
- TNF gene expression (HCoV-OC43 [1]; SPINAL CORD, DBM 500 mpk): 3.77 and 1.80 and -0.57 and 1.44
- Viral RNA copies (log scale), Brain (HCoV-OC43 [2]; DBM 100 mpk oral QD): 10.75 and 11.25 and 9.46 and 11.43 and 10.91 and 11.34
- Viral RNA copies (log scale), Kidney (HCoV-OC43 [2]; DBM 100 mpk oral QD): 4.46 and 4.97 and 5.51 and 4.16 and 5.82 and 6.00
- Viral RNA copies (log scale), Lung (HCoV-OC43 [2]; DBM 100 mpk oral QD): 5.86 and 6.10 and 6.32 and 5.21 and 6.78 and 7.01
- Viral RNA copies (log scale), Spinal Cord (HCoV-OC43 [2]; DBM 100 mpk oral QD): 6.20 and 7.58 and 5.38 and 6.52 and 6.60 and 6.93
- Viral RNA copies (log scale), Brain (HCoV-OC43 [2]; DBM 200 mpk oral QD): 11.00 and 7.97 and 8.87 and 10.9 and 11.19
- Viral RNA copies (log scale), Kidney (HCoV-OC43 [2]; DBM 200 mpk oral QD): 3.29 and 5.31 and 4.03 and 3.52 and 4.72
